Holding throughout (format): biochemical
What all share (settings): isolated kinase, 33P-ATP, 2 h

One experiment has as its target T1, FLT3 (Homo sapiens, UniProt P36888).
T1 sequence (P36888 27-993): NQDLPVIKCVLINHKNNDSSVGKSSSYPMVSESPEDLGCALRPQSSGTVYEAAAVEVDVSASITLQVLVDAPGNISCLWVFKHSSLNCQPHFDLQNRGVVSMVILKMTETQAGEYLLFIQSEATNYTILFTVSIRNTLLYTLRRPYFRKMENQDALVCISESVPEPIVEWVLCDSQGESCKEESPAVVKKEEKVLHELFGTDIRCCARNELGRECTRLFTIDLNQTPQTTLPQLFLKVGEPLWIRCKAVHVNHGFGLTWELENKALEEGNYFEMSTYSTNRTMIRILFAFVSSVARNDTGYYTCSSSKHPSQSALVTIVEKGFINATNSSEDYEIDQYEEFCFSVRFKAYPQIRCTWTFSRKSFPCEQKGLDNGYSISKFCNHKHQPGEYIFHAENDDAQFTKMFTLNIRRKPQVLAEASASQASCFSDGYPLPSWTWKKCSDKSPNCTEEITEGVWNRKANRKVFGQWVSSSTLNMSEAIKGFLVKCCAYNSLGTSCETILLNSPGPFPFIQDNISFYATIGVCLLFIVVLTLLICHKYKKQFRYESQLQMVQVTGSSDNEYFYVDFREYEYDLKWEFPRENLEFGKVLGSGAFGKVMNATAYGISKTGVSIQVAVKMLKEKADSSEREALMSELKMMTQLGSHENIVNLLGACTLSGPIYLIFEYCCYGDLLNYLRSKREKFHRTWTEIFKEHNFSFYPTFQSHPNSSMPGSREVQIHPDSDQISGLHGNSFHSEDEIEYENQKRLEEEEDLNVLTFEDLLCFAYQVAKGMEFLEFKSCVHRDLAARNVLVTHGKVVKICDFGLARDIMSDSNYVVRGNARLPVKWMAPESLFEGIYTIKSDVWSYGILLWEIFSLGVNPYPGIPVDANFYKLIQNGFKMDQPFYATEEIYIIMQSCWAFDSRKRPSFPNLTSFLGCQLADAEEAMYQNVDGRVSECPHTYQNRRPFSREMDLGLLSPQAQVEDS
The experiment is described as follows: RBC HotSpot kinase inhibition assay, FLT3.
From the text: (§1) This assay uses the isolated kinase enzyme. This assay is very useful for determining competition of the inhibitor for ATP and/or substrates and for measuring the kinetics of enzyme inhibition. […] Unlike kinase binding assays that measure competition for ATP, the HotSpot Kinase Assay is a functional assay that measures catalytic activity; as such it measures relative functional potency regardless of the mechanism of enzyme inhibition. This assay uses the form of the various enzymes that are easiest to express, which may not necessarily be the form of the enzyme that exist in the cell. (Sometimes the carboxy terminus has been truncated to aid in expression, or, if it is a receptor kinase, the enzyme itself is isolated from the other parts of the receptor that are involved in regulating kinase activity.)
(§2) The reagent used was as follows: Base Reaction buffer; 20 mM Hepes (pH 7.5), 10 mM MgCl2, 1 mM EGTA, 0.01% Brij35, 0.02 mg/ml BSA, 0.1 mM Na3VO4, 2 mM DTT, 1% DMSO. Required cofactors were added individually to each kinase reaction.
(§3) The reaction procedure was as follows: • 1) Substrates were prepared in freshly prepared Reaction Buffer. • 2) Any required cofactors were delivered to the substrate solution above. • 3) Kinase was delivered into the substrate solution and gently mixed. • 4) Compounds were delivered in 100% DMSO into the kinase reaction mixture by Acoustic technology (Echo550; nanoliter range), followed by incubation for 20 min at room temp. • 5) ^33P-ATP was delivered into the reaction mixture to initiate the reaction. • 6) The mixture was incubated for 2 hours at room temperature. • 7) Kinase activity was detected by P81 filter-binding method.
as §1, with “Although not wishing to be limited by theory, it is believed that sometimes” for “(Sometimes”, “activity.” for “activity.)”
(§4) The reagent used was as follows: Base Reaction buffer; 20 mM Hepes (pH 7.5), 10 mM MgCl2, 1 mM EGTA, 0.01% Brij35, 0.02 mg/ml BSA, 0.1 mM Na3 VO4, 2 mM DTT, 1% DMSO.
(§5) Required cofactors were added individually to each kinase reaction.
as §3, with “33P-ATP” for “^33P-ATP”

Another experiment concerns the target T2, IRAK4 (Homo sapiens, UniProt Q9NWZ3).
T2 sequence (Q9NWZ3 1-460): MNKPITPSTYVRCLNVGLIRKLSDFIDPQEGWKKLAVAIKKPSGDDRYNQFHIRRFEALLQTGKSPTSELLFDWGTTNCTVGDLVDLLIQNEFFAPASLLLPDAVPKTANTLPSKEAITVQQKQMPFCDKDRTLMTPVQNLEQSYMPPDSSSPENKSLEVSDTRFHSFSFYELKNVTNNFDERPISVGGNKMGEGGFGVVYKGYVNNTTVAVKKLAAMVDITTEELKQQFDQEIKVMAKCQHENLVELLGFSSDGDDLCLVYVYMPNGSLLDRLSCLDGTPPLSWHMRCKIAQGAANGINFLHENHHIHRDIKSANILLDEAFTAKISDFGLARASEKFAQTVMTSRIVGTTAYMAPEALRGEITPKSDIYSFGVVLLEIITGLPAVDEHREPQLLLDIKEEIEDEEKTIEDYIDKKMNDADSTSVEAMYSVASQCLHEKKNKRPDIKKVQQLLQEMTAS
The experiment is described as follows: RBC HotSpot kinase inhibition assay, IRAK4.
From the text: as §1, §2, §3
as §1, with “Although not wishing to be limited by theory, it is believed that sometimes” for “(Sometimes”, “activity.” for “activity.)”
as §4, §5
as §3, with “33P-ATP” for “^33P-ATP”

The next experiment has as its target IRAK1 (Homo sapiens, UniProt P51617). The experiment is described as follows: RBC HotSpot kinase inhibition assay, IRAK1.
From the text: as §1, §2, §3
as §1, with “Although not wishing to be limited by theory, it is believed that sometimes” for “(Sometimes”, “activity.” for “activity.)”
as §4, §5
as §3, with “33P-ATP” for “^33P-ATP”

As a reminder, the IC50 is the midpoint of a concentration-inhibition curve. Higher therefore signals weaker potency in that assay.

Structures are written as SMILES.

IRAK1, sequence (P51617 whole entry): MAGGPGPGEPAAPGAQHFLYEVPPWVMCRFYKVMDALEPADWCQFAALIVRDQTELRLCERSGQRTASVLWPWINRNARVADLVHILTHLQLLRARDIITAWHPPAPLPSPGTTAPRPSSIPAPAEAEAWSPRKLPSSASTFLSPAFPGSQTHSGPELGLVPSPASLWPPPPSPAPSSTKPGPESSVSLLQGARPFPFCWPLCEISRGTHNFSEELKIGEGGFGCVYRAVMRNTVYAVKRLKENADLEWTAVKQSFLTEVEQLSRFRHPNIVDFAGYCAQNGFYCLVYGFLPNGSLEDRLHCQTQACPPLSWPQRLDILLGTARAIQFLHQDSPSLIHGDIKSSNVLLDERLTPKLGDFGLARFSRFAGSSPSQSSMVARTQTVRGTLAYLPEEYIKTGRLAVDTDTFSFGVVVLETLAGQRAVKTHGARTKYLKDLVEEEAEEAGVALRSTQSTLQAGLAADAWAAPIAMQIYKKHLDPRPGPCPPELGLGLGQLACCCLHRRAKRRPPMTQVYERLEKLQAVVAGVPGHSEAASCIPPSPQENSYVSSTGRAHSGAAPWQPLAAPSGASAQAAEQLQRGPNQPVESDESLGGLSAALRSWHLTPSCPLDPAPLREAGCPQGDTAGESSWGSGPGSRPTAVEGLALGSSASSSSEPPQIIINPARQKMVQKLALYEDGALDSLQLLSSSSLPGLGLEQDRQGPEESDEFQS

Take `COc1cn2ncc(-c3nc(N[C@H]4CNCC[C@@H]4F)ncc3F)c2nc1C(C)(C)O` [Compound 6a, 2-(3-(5-fluoro-2-(((3S,4S)-4-fluoropiperidin-3-yl)amino)pyrimidin-4-yl)-6-methoxypyrazolo[1,5-a]pyrimidin-5-yl)propan-2-ol]: the IC50 on FLT3 (Table 17) is under 0.5 nM; at IRAK4 (Table 17), 0.7 nM; at IRAK1 (Table 17), 3 nM.

For `COc1cn2ncc(-c3cccc(N[C@@H]4CCCNC4)n3)c2nc1C1CC1` [Compound 20, (R)-6-(5-cyclopropyl-6-methoxypyrazolo[1,5-a]pyrimidin-3-yl)-N-(piperidin-3-yl)pyridin-2-amine], the results for the 50% inhibitory concentration (IC50) against FLT3 (Table 11), against IRAK4 (Table 11) and against IRAK1 (Table 11) were under 0.5 nM, 5 nM and 146 nM, respectively.

`COc1cn2ncc(-c3nc(N[C@H]4CNC[C@@H]4F)c(F)cc3F)c2nc1C1CC1` [Compound 24, 6-(5-cyclopropyl-6-methoxypyrazolo[1,5-a]pyrimidin-3-yl)-3,5-difluoro-N-((3S,4S)-4-fluoropyrrolidin-3-yl)pyridin-2-amine]: the results for the IC50 against FLT3 (Table 11), against IRAK4 (Table 11) and against IRAK1 (Table 11) were under 0.5 nM, under 0.5 nM and 2 nM, respectively.

Take `COc1cn2ncc(-c3nc(N[C@@H]4CCCNC4)c(C#N)cc3F)c2nc1C(C)(C)O` [Compound 9, (R)-5-fluoro-6-(5-(2-hydroxypropan-2-yl)-6-methoxypyrazolo[1,5-a]pyrimidin-3-yl)-2-(piperidin-3-ylamino)nicotinonitrile]: the values for the IC50 against FLT3 (Table 11), against IRAK4 (Table 11) and against IRAK1 (Table 11) were under 0.5 nM, under 0.5 nM and 3 nM, respectively.

For the compound `COc1cn2ncc(-c3ccc(F)c(N[C@H]4CNCC[C@@H]4F)n3)c2nc1C1CC1` [Compound 6, 6-(5-cyclopropyl-6-methoxypyrazolo[1,5-a]pyrimidin-3-yl)-3-fluoro-N-((3S,4S)-4-fluoropiperidin-3-yl)pyridin-2-amine], the IC50 at FLT3 (Table 11) is under 0.5 nM; against IRAK4 (Table 11) it was 0.6 nM; on IRAK1 (Table 11) it was 4 nM.

For `COc1cn2ncc(-c3nc(N[C@H]4CNCC[C@@H]4F)c(C#N)cc3F)c2nc1C1CC1` [Compound 7, 6-(5-cyclopropyl-6-methoxypyrazolo[1,5-a]pyrimidin-3-yl)-5-fluoro-2-(((3S,4S)-4-fluoropiperidin-3-yl)amino)nicotinonitrile], the IC50 against FLT3 (Table 11), at IRAK4 (Table 11) and on IRAK1 (Table 11) was under 0.5 nM throughout.

Turning to `COc1cn2ncc(-c3cccc(N[C@H]4CNCC[C@@H]4F)n3)c2nc1C1CC1` [Compound 21, 6-(5-cyclopropyl-6-methoxypyrazolo[1,5-a]pyrimidin-3-yl)-N-((3S,4S)-4-fluoropiperidin-3-yl)pyridin-2-amine], the results for the half-inhibitory concentration (IC50) at FLT3 (Table 11), against IRAK4 (Table 11) and against IRAK1 (Table 11) were under 0.5 nM, 2 nM and 38 nM, respectively.

As for `COc1cn2ncc(-c3cncc(N[C@H]4CNCC[C@@H]4F)n3)c2nc1C1CC1` [Compound 12a, 6-(5-cyclopropyl-6-methoxypyrazolo[1,5-a]pyrimidin-3-yl)-N-((3S,4S)-4-fluoropiperidin-3-yl)pyrazin-2-amine], the IC50 against FLT3 (Table 17) is under 0.5 nM; against IRAK4 (Table 17), 0.8 nM; against IRAK1 (Table 17) it was 6 nM.

On to `COc1cn2ncc(-c3cccc(N[C@H]4CNC[C@@H]4F)n3)c2nc1C1CC1` [Compound 19, 6-(5-cyclopropyl-6-methoxypyrazolo[1,5-a]pyrimidin-3-yl)-N-((3S,4S)-4-fluoropyrrolidin-3-yl)pyridin-2-amine], for which the IC50 on FLT3 (Table 11) was under 0.5 nM; against IRAK4 (Table 11) it was 2 nM; on IRAK1 (Table 11), 45 nM.

Take `COc1cn2ncc(-c3nc(N[C@H]4CNCC[C@@H]4F)c(C#N)cc3F)c2nc1C(C)(C)O` [Compound 10, 5-fluoro-2-(((3S,4S)-4-fluoropiperidin-3-yl)amino)-6-(5-(2-hydroxypropan-2-yl)-6-methoxypyrazolo[1,5-a]pyrimidin-3-yl)nicotinonitrile]: the IC50 against FLT3 (Table 11) is under 0.5 nM; against IRAK4 (Table 11) it was under 0.5 nM; on IRAK1 (Table 11), 2 nM.

(Values after patent US20260374773A1, “MULTI-CYCLIC IRAK AND FLT3 INHIBITING COMPOUNDS AND USES THEREOF” (CHILDREN'S HOSPITAL MEDICAL CENTER, priority 2022, published 2026).)
